pEC50: −log10 of the molar value. Like-named read-outs stand apart in the source and are kept apart here.
Columns and labels:
[1] = molecular target: T1, human CB1 receptors (Homo sapiens, UniProt P21554); test: cAMP assay in HEK-293 cells, hCB1 agonist; assay type: cell-based; conditions: inhibition of forskolin-stimulated cAMP, HEK-293 cells
T1 construct: (cDNA clone) CNR01L000
Summary of the method: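 Stable hCB1 HEK-293 cells suspended in HBSS with 10 mM HEPES and 0.1% fatty acid-free BSA, incubated 30 min at 37° C. with compound plus forskolin (90 uM in the 3× compound solution). Lysed cAMP measured by enzyme-fragment kit; EC50 = 50% inhibition of forskolin-stimulated cAMP (forskolin maximum = 100%), sigmoidal fit.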

[2] = molecular target: T2, human CB1 (hCB1) (Homo sapiens, UniProt P21554); test: 35S GTPγS binding assay, hCB1 agonist; assay type: biochemical; conditions: GTPγS agonist, HEK-293 membranes; read-out: hCB1 EC50 (GTPyS ag)
T2 construct: (cDNA clone) CNR01L000
T2 sequence (P21554 whole entry): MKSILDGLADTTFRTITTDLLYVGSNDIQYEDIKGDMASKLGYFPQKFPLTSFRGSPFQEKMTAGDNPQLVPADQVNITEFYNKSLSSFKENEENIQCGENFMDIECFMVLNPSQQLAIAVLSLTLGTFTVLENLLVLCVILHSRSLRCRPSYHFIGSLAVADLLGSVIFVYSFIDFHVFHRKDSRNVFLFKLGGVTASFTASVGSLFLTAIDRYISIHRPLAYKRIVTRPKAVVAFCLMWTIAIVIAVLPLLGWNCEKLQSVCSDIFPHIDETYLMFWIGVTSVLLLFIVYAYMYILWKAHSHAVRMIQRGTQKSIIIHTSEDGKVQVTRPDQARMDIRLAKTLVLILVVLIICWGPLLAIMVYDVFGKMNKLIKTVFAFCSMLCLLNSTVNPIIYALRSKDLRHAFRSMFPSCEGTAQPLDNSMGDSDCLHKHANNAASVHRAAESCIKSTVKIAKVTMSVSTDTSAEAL
Description: (§1) cDNA expression clones for human CB1 (hCB1, Genbank Accession No. AY225225) and human CB2 (hCB2, Genbank Accession No. AY242132) expressed in vector pcDNA3.1+ were purchased from UMR cDNA Resource Center, Rolla, Mo. (Clone ID CNR01L000 for hCB1; CNR0200000 for hCB2).
Stable, HEK-293-derived cell lines that recombinantly express hCBI or hCB2 were established. In brief, the clone hCB1 (CNR IL) or hCB2 (CNR2) was transfected into human embryonic kidney cells (HEK-293) using Lipofectamine 2000 (Gibco, Cat#11668-019) according to the manufacturer's protocol. Transfected clones were isolated by single colony purification and clones were screened for receptor expression using a whole cell, ^3H—CP 55,940 radioligand binding assay. HEK-293 stable cells were maintained in Dulbecco's modified Eagles medium (DMEM) containing 10% fetal bovine serum, 2 mM L-glutamine and 0.5 mg/mL G-418.
(§2) Membranes were isolated from transfected cells as follows. Monolayers of cultured cells were washed twice with phosphate-buffered saline (PBS). Cells were scraped into 20 mM HEPES, pH 7.4, 10 mM EDTA containing complete cocktail protease inhibitors (Roche, Catalog #11 697 498 001) and were homogenized by an electric-powered mechanical probe homogenizer (Omni GLH; probe G7-195S) for 40 seconds at 7000 rpm. Homogenates were centrifuged 10 minutes at 1000×g at 4° C. The supernatant was collected and was centrifuged for 1 hour at 40,000×g. The supernatant was then decanted and the resulting pellet was re-suspended in 20 mM HEPES, pH 7.4, 5 mM MgCl2, 1 mM EDTA, 10% sucrose with complete cocktail protease inhibitors. Protein concentration of membrane suspensions were measured by Bradford Protein Assay using bovine serum albumin as the standard (BioRad catalog #500-0006). Protein concentrations of membrane suspensions were adjusted with the final buffer in the range of 5 to 10 mg/mL and were stored at −80° C. until further use.
(§3) Functional assays which monitor G-protein coupled receptor or downstream cellular responses can be used to characterize potential CB1 receptor and/or CB2 receptor agonist or antagonist activities. Direct activation (or inhibition of activation) can be monitored using a GTPγS assay (membrane-based assay) or cAMP assay (whole cell-based assay).
(§4) ^35S GTPγS binding assays were performed by incubating recombinant cell membranes prepared above (5 μg) in the presence of scintillation proximity assay beads (SPA beads, Catalog #RPNQ0252 GE Healthcare, Buckinghamshire, England) in GTPγS binding buffer [50 mM HEPES (pH 7.4), 100 mM NaCl, 5 mM MgCl2, 0.001% saponin (Sigma catalog #S4521)] supplemented with 20 uM GDP (Sigma catalog #G7127) in the presence or absence of test compound. The reaction was carried out in 96-well microplates with 0.1 nM [^35S]GTPγS (specific activity=1250 Ci/mmol; Perkin Elmer catalog #NEG030X250UC) in a final volume of 100 uL. After a 90 min room temperature incubation, the reaction was analyzed using a scintillation counter (Perkin Elmer Microbeta instrument). Binding data were analyzed using GraphPad Prism.

[3] = molecular target: T3, human CB2 (hCB2) (Homo sapiens, UniProt P34972); test: 35S GTPγS binding assay, hCB2 agonist; assay type: biochemical
T3 construct: (cDNA clone) CNR0200000
T3 sequence (P34972 whole entry): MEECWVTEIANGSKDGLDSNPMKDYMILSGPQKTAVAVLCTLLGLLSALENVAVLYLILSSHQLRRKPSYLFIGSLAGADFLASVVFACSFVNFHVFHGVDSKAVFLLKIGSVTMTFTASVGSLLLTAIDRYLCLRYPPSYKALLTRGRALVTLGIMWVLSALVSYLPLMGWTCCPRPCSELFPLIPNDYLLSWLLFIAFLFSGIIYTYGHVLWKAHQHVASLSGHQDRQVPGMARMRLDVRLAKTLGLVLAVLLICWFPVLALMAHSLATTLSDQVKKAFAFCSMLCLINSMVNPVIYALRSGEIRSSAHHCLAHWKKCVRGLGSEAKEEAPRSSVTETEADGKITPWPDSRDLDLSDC
Method: as §1
as §2, with “Cells were scraped into 20 mM HEPES, pH 7.4, 10 mM EDTA containing complete cocktail protease inhibitors (Roche, Catalog #11 697 498 001) and were homogenized by an electric-powered mechanical probe homogenizer (Omni GLH; probe G7-195S) for 40 seconds at 7000 rpm.” left out
as §3, §4

[4] = molecular target: T4, human CB2 receptors (Homo sapiens, UniProt P34972); test: cAMP assay in HEK-293 cells, hCB2 agonist; assay type: cell-based
T4 construct: (cDNA clone) CNR0200000
T4 sequence (P34972 whole entry): as above
Summary of the method: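 HEK-293 cells stably expressing human CB2, suspended at 1,500,000 cells/mL in HBSS with 10 mM HEPES and 0.1% fatty-acid-free BSA, exposed to test compound plus forskolin (90 uM in the 3× compound solution) for 30 min at 37° C.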

[5] = GTPγS agonist, HEK-293 membranes, read-out: hCB2 EC50 (GTPyS ag)
[6] = inhibition of forskolin-stimulated cAMP, HEK-293 cells, read-out: hCB2 EC50 (cAMP ag)
[7] = inhibition of forskolin-stimulated cAMP, HEK-293 cells

T1 sequence (P21554 whole entry): as the sequence (P21554 whole entry) above

SMILES | hCB1 EC50 (cAMP ag, nM) [1] | pEC50 [2] | pEC50 [3] | pEC50 [4] | pEC50 [3, 5] | pEC50 [4, 6] | hCB2 EC50 (cAMP ag, nM) [4, 7]
COc1ccc(C(=O)c2cc3cc(C)n(CC4CCOC4)c3s2)cn1 (centres unmarked) [Compound 159, (6-methoxypyridin-3-yl)(5-methyl-6-((tetrahydrofuran-3-yl)methyl)-6H-thieno[2,3-b]pyrrol-2-yl)methanone] | NS (NS means “Not Significant,” which means less than 30% agonist activity when compared to the positive control.) | < 5.00 | < 5.00 | 5.00 to 6.00 | – | – | –
COc1ccc(C(=O)c2cc3cc(C)n(CCN4CCOC(C)(C)C4)c3s2)cn1 [Compound 162, (6-(2-(2,2-dimethylmorpholino)ethyl)-5-methyl-6H-thieno[2,3-b]pyrrol-2-yl)(6-methoxypyridin-3-yl)methanone] | NS (NS means “Not Significant,” which means less than 30% agonist activity when compared to the positive control.) | < 5.00 | – | – | < 5.00 | 6.00 to 7.00 | –
COc1ccc(C(=O)c2cc3cc(C)n(CCNC4CCOCC4)c3s2)cn1 [Compound 163, (6-methoxypyridin-3-yl)(5-methyl-6-(2-((tetrahydro-2H-pyran-4-yl)amino)ethyl)-6H-thieno[2,3-b]pyrrol-2-yl)methanone] | NS (NS means “Not Significant,” which means less than 30% agonist activity when compared to the positive control.) | < 5.00 | 5.00 to 6.00 | 6.00 to 7.00 | – | – | –
COc1ccc(C(=O)c2cc3cc(C)n(CC(=O)O)c3s2)cn1 [Compound 166, 2-(2-(6-methoxynicotinoyl)-5-methyl-6H-thieno[2,3-b]pyrrol-6-yl)acetic acid] | NS (NS means “Not Significant,” which means less than 30% agonist activity when compared to the positive control.) | < 5.00 | – | – | < 5.00 | – | NS (NS means “Not Significant,” which means less than 30% agonist activity when compared to the positive control.)
COC(=O)Cn1c(C)cc2cc(C(=O)c3ccc(OC)nc3)sc21 [Compound 168, Methyl 2-(2-(6-methoxynicotinoyl)-5-methyl-6H-thieno[2,3-b]pyrrol-6-yl)acetate] | NS (NS means “Not Significant,” which means less than 30% agonist activity when compared to the positive control.) | < 5.00 | – | – | < 5.00 | – | –
COc1ccc(C(=O)c2cc3cc(C)n(C[C@@H]4COCCN4C)c3s2)cn1 [Compound 171, (R)-(6-methoxypyridin-3-yl)(5-methyl-6-((4-methylmorpholin-3-yl)methyl)-6H-thieno[2,3-b]pyrrol-2-yl)methanone] | NS (NS means “Not Significant,” which means less than 30% agonist activity when compared to the positive control.) | < 5.00 | < 5.00 | – | – | – | –
COc1ccc(C(=O)c2cc3cc(C)n(CC4CCNCC4)c3s2)cn1 [Compound 172, (6-methoxypyridin-3-yl)(5-methyl-6-(piperidin-4-ylmethyl)-6H-thieno[2,3-b]pyrrol-2-yl)methanone] | NS (NS means “Not Significant,” which means less than 30% agonist activity when compared to the positive control.) | < 5.00 | – | – | < 5.00 | – | NS (NS means “Not Significant,” which means less than 30% agonist activity when compared to the positive control.)
COc1ccc(C(=O)c2cc3cc(C)n(C)c3s2)cn1 [Compound 174, (5,6-dimethyl-6H-thieno[2,3-b]pyrrol-2-yl)(6-methoxypyridin-3-yl)methanone] | NS (NS means “Not Significant,” which means less than 30% agonist activity when compared to the positive control.) | < 5.00 | – | – | < 5.00 | – | –
COc1ccc(C(=O)c2cc3cc(C)n(CC(=O)O)c3s2)c(F)c1 [Compound 176, 2-(2-(2-fluoro-4-methoxybenzoyl)-5-methyl-6H-thieno[2,3-b]pyrrol-6-yl)acetic acid] | NS (NS means “Not Significant,” which means less than 30% agonist activity when compared to the positive control.) | < 5.00 | – | – | < 5.00 | > 7.00 | –
COc1ccc(C(=O)c2cc3cc(C)n(CC4COCCO4)c3s2)cn1 (centres unmarked) [Compound 177, (6((1,4-dioxan-2-yl)methyl)-5-methyl-6H-thieno[2,3-b]pyrrol-2-yl)(6-methoxypyridin-3-yl)methanone] | NS (NS means “Not Significant,” which means less than 30% agonist activity when compared to the positive control.) | < 5.00 | 5.00 to 6.00 | 5.00 to 6.00 | – | – | –
COc1ccc(C(=O)c2cc3cc(C)n(CCN4CCCC4COCc4ccccc4)c3s2)cn1 (centres unmarked) [Compound 178, (6-(2-(2-((benzyloxy)methyl)pyrrolidin-1-yl)ethyl)-5-methyl-6H-thieno[2,3-b]pyrrol-2-yl)(6-methoxypyridin-3-yl)methanone] | NS (NS means “Not Significant,” which means less than 30% agonist activity when compared to the positive control.) | < 5.00 | < 5.00 | – | – | – | NS (NS means “Not Significant,” which means less than 30% agonist activity when compared to the positive control.)
COc1ccc(C(=O)c2cc3cc(C)n(CC4CCN(C(=O)OC(C)(C)C)CC4)c3s2)cn1 [Compound 179, tert-butyl 4((2-(6-methoxynicotinoyl)-5-methyl-6H-thieno[2,3-b]pyrrol-6-yl)methyl)piperidine-1-carboxylate] | NS (NS means “Not Significant,” which means less than 30% agonist activity when compared to the positive control.) | < 5.00 | – | – | < 5.00 | – | –
COc1ccc(C(=O)c2cc3cc(C)n(CCN4CCC(C(F)(F)F)CC4)c3s2)cn1 [Compound 181, (6-methoxypyridin-3-yl)(5-methyl-6-(2-(4-(trifluoromethyl)piperidin-1-yl)ethyl)-6H-thieno[2,3-b]pyrrol-2-yl)methanone] | – | 5.00 to 6.00 | 6.00 to 7.00 | – | – | – | NS (NS means “Not Significant,” which means less than 30% agonist activity when compared to the positive control.)
